# Data: patent US20050112573A1, “Method of detecting toxic substance” (priority 2001, published 2005)
# System: yeast genes (level of expressed mRNA)
# Test: DNA chip analysis of expressed mRNA of yeast genes after 2 h culture with a toxic chemical substance
# Assay type: cell-based, Saccharomyces cerevisiae S288C
# How it was run: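 S. cerevisiae S288C in YPD at 25 °C was exposed at log phase for 2 h to a growth-inhibiting, non-lethal concentration of the chemical. Poly(A) mRNA was reverse-transcribed with Cy3- or Cy5-dUTP and hybridized to a whole-genome yeast DNA chip (65 °C, >12 h). Values are fluorescence ratios versus untreated cells.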
substance,measurement,setting,value
Na2As [(1)],The level of expressed mRNA in the presence of chemical substance/,"yeast gene YAL053W, ratio to control without chemical",0.9
same,The level of expressed mRNA in the presence of chemical substance/The level of expressed mRNA in the absence of chemical substance,yeast gene YAR010C,0.8
same,The level of expressed mRNA in the presence of chemical substance/The level of expressed mRNA in the absence of chemical substance,yeast gene YBL005W-A,1.0
same,The level of expressed mRNA in the presence of chemical substance/The level of expressed mRNA in the absence of chemical substance,yeast gene YBL041W,1.2
same,The level of expressed mRNA in the presence of chemical substance/The level of expressed mRNA in the absence of chemical substance,yeast gene YBL043W,1.2
same,The level of expressed mRNA in the presence of chemical substance/,"yeast gene YBL048W, ratio to control without chemical substance, 2 h culture",2.0
same,The level of expressed mRNA in the presence of chemical substance/The level of expressed mRNA in the absence of chemical substance,yeast gene YBL078C,2.3
same,The level of expressed mRNA in the presence of chemical substance/,"yeast gene YBL107C, ratio to control without chemical substance, 2 h culture",1.4
same,The level of expressed mRNA in the presence of chemical substance/in the absence of chemical substance,yeast gene YBR036C,0.8
same,The level of expressed mRNA in the presence of chemical substance/The level of expressed mRNA in the absence of chemical substance,yeast gene YBR214W,0.9
same,The level of expressed mRNA in the presence of chemical substance/in the absence of chemical substance,yeast gene YBR298C,1.1
same,The level of expressed mRNA in the presence of chemical substance/The level of expressed mRNA in the absence of chemical substance,yeast gene YCL020W,1.1
same,The level of expressed mRNA in the presence of chemical substance/The level of expressed mRNA in the absence of chemical substance,yeast gene YCL027W,0.7
same,The level of expressed mRNA in the presence of chemical substance/The level of expressed mRNA in the absence of chemical substance,yeast gene YCR004C,1.7
same,The level of expressed mRNA in the presence of chemical substance/The level of expressed mRNA in the absence of chemical substance,yeast gene YCR071C,1.1
same,The level of expressed mRNA in the presence of chemical substance/The level of expressed mRNA in the absence of chemical substance,yeast gene YCR088W,0.9
same,The level of expressed mRNA in the presence of chemical substance/The level of expressed mRNA in the absence of chemical substance,yeast gene YDL008W,1.1
same,The level of expressed mRNA in the presence of chemical substance/,"yeast gene YDL072C, ratio to control without chemical",1.3
same,The level of expressed mRNA in the presence of chemical substance/in the absence of chemical substance,yeast gene YDL078C,0.7
same,The level of expressed mRNA in the presence of chemical substance/,"yeast gene YDL204W, ratio to control without chemical",1.4
same,The level of expressed mRNA in the presence of chemical substance/in the absence of chemical substance,yeast gene YDL215C,1.0
same,The level of expressed mRNA in the presence of chemical substance/,"yeast gene YDL222C, ratio to control without chemical",0.9
same,The level of expressed mRNA in the presence of chemical substance/The level of expressed mRNA in the absence of chemical substance,yeast gene YDL238C,0.7
same,The level of expressed mRNA in the presence of chemical substance/The level of expressed mRNA in the absence of chemical substance,yeast gene YDR055W,1.7
same,The level of expressed mRNA in the presence of chemical substance/The level of expressed mRNA in the absence of chemical substance,yeast gene YDR084C,0.9
same,The level of expressed mRNA in the presence of chemical substance/The level of expressed mRNA in the absence of chemical substance,yeast gene YDR085C,1.9
same,The level of expressed mRNA in the presence of chemical substance/The level of expressed mRNA in the absence of chemical substance,yeast gene YDR104C,0.8
same,The level of expressed mRNA in the presence of chemical substance/The level of expressed mRNA in the absence of chemical substance,yeast gene YDR115W,1.3
same,The level of expressed mRNA in the presence of chemical substance/The level of expressed mRNA in the absence of chemical substance,yeast gene YDR259C,1.4
same,The level of expressed mRNA in the presence of chemical substance/in the absence of chemical substance,yeast gene YDR297W,1.5
same,The level of expressed mRNA in the presence of chemical substance/The level of expressed mRNA in the absence of chemical substance,yeast gene YDR315C,1.0
same,The level of expressed mRNA in the presence of chemical substance/,"yeast gene YDR330W, ratio to control without chemical substance, 2 h culture",0.8
same,The level of expressed mRNA in the presence of chemical substance/The level of expressed mRNA in the absence of chemical substance,yeast gene YDR358W,0.7
same,The level of expressed mRNA in the presence of chemical substance/in the absence of chemical substance,yeast gene YDR387C,0.8
same,The level of expressed mRNA in the presence of chemical substance/The level of expressed mRNA in the absence of chemical substance,yeast gene YDR388W,0.7
same,The level of expressed mRNA in the presence of chemical substance/,"yeast gene YDR411C, ratio to control without chemical substance, 2 h culture",0.9
same,The level of expressed mRNA in the presence of chemical substance/The level of expressed mRNA in the absence of chemical substance,yeast gene YDR432W,0.5
same,The level of expressed mRNA in the presence of chemical substance/The level of expressed mRNA in the absence of chemical substance,yeast gene YDR481C,0.7
same,The level of expressed mRNA in the presence of chemical substance/The level of expressed mRNA in the absence of chemical substance,yeast gene YDR510W,1.0
same,The level of expressed mRNA in the presence of chemical substance/,"yeast gene YDR511W, ratio to control without chemical substance, 2 h culture",1.3
same,The level of expressed mRNA in the presence of chemical substance/,"yeast gene YDR545W, ratio to control without chemical substance, 2 h culture",0.6
same,The level of expressed mRNA in the presence of chemical substance/,"yeast gene YEL001C, ratio to control without chemical",1.0
same,The level of expressed mRNA in the presence of chemical substance/The level of expressed mRNA in the absence of chemical substance,yeast gene YEL042W,0.6
same,The level of expressed mRNA in the presence of chemical substance/The level of expressed mRNA in the absence of chemical substance,yeast gene YEL066W,2.0
same,The level of expressed mRNA in the presence of chemical substance/,"yeast gene YER004W, ratio to control without chemical substance, 2 h culture",1.0
same,The level of expressed mRNA in the presence of chemical substance/,"yeast gene YER035W, ratio to control without chemical substance, 2 h culture",1.4
same,The level of expressed mRNA in the presence of chemical substance/The level of expressed mRNA in the absence of chemical substance,yeast gene YER039C,1.0
same,The level of expressed mRNA in the presence of chemical substance/,"yeast gene YER079W, ratio to control without chemical substance, 2 h culture",1.1
same,The level of expressed mRNA in the presence of chemical substance/,"yeast gene YER106W, ratio to control without chemical",1.3
same,The level of expressed mRNA in the presence of chemical substance/The level of expressed mRNA in the absence of chemical substance,yeast gene YER107C,0.9
same,The level of expressed mRNA in the presence of chemical substance/The level of expressed mRNA in the absence of chemical substance,yeast gene YER130C,0.9
same,The level of expressed mRNA in the presence of chemical substance/,"yeast gene YER158C, ratio to control without chemical substance, 2 h culture",1.2
same,The level of expressed mRNA in the presence of chemical substance/,"yeast gene YER163C, ratio to control without chemical substance, 2 h culture",1.1
same,The level of expressed mRNA in the presence of chemical substance/,"yeast gene YER175C, ratio to control without chemical substance, 2 h culture",0.9
same,The level of expressed mRNA in the presence of chemical substance/,"yeast gene YFL006W, ratio to control without chemical substance, 2 h culture",0.8
